Counter-ions that a name gives are not always drawn.
Columns and labels:
[1] = test system: bleomycin-induced pulmonary fibrosis
Method: Materials and Methods Protocol to Examine the Effects of an anti-human CLDN1 Monoclonal Antibody in Preventing Fibrosis in a Bleomycin-Induced Pulmonary Fibrosis Model. Pathogen-free 6 weeks old female C57BL/6Jmice were obtained from Japan SLC, Inc. (Japan). At Day 0, 54 mice were induced to develop pulmonary fibrosis by a single intratracheal administration of bleomycin hydrochloride (BLM, Nippon Kayaku, Japan) in saline at a dose of 3.0 mg/kg, in a volume of 50 μL per animal using Microsprayer® (Penn-Century, USA). In each slot, the mice were randomized into 3 groups of 18 mice based on their body weight on the day before the start of treatment at Day 0. Individual body weights were measured daily during the experimental period. Survival, clinical signs and behaviour of mice were monitored daily.
Mice groups. Group 1 (Vehicle): Eighteen bleomycin-induced pulmonary fibrosis model mice were intraperitoneally administered vehicle [Saline] in a volume of […] once weekly from Day 0 to 20. […] Group 3 (Dexamethasone): Eighteen bleomycin-induced pulmonary fibrosis model mice were orally administered pure water supplemented with Dexamethasone at a dose of 0.25 mg/kg (in a volume of 10 mL/kg) once daily from Day 0 to 20. Mice in all groups were sacrificed at Day 21.
Survival, biochemical and histological analysis. […]

[2] = test system: BLM-induced skin fibrosis; test: Bleomycin-induced skin fibrosis model; assay type: in vivo, mouse; conditions: 50 mg/kg i.p., BLM for 4 weeks
Text: BLM Model and Sampling. As indicated on the scheme presented on FIG. 6, the BLM is subcutaneously injected every other day into the pre-shaved back of mice for 4 weeks. The injection sites are located at the corners of a 1.5 cm^2-square shaved area and used in rotation (corner 1, corner 2, corner 3, corner 4, corner 1, etc). A 5-mm circle is clipped using a dermal punch and used for collagen quantification. The remaining intact area is cut out into 3 rectangles, one for histology and two for biochemical analyses.
Effects of Imatinib on Skin Fibrosis. Imatinib mesylate is a tyrosine kinase inhibitor against c-Abl, PDGFR, and several other tyrosine kinases (Alfiya et al., Arthritis Rheum., 2009, 60: 219). c-Abl is crucial for induction of ECM proteins through the TGF-β pathway. Its inhibition may reduce the synthesis of EMC components. Imatinib interferes with PDGF signalling by blocking the tyrosine kinase activity of PDGFR (Alfiya et al., Arthritis Rheum., 2009, 60: 219). The study design is presented on FIG. 7.

[3] = test system: UUO-induced renal interstitial fibrosis; test: Unilateral ureteral obstruction (UUO)-induced renal interstitial fibrosis; assay type: in vivo
Method: Test Substances. A murinized version of an anti CLDN1 mAb was synthetized at the Inventors' laboratory and used in the present study. […] To prepare dosing solution, the anti-CLDN1 mAb was diluted with a saline solution used as vehicle. Telmisartan (Micardis®) was purchased from Boehringer Ingelheim GmbH (Germany) and dissolved in pure water.
Unilateral Ureteral Obstruction (UUO) Surgery. On Day 0, UUO surgery was performed under three types of mixed anesthetic agents (medetomidine, midazolam, butorphanol). After shaving the hair, the abdomen was cut open and the left ureter was exteriorized. The ureter was ligated by 4-0 silk sutures at two points. The peritoneum and the skin were closed with sutures, and the mice were transferred to a clean cage and kept until recovery from anesthesia.
Route of Drug Administration. The anti-CLDN1 mAb was administered intraperitoneally at a volume of 100 μL/mouse. Telmisartan was administered orally at a volume of 10 μL/mouse.
Treatment Doses. The anti-CLDN1 mAb was administered at a dose of 500 μg/100 μL/mouse. Telmisartan was administered at a dose of 30 mg/kg once daily.
Animals. Seven-week-old female C57BL/6J mice were obtained from Japan SLC, Inc. (Japan). Animals were housed and fed with a normal diet (CE-2; CLEA Japan, Japan) under controlled conditions. All animals used in the study were housed and cared for in accordance with the Japanese Pharmacological Society Guidelines for Animal Use. The animals were maintained in a SPF facility under controlled conditions of temperature (23±3° C.), humidity (50±20%), lighting (12-hour artificial light and dark cycles; light from 8:00 to 20:00) and air exchange. A high pressure was maintained in the experimental room to prevent contamination of the facility. The animals were housed in TPX cages (CLEA Japan) with a maximum of 4 mice per cage. Sterilized Paper-Clean (Japan SLC) was used for bedding and replaced once a week.
Measurement of Plasma Biochemistry. For plasma biochemistry, non-fasting blood was collected in polypropylene tubes with anticoagulant (Novo-Heparin, Mochida Pharmaceutical Co. Ltd., Japan) and centrifuged at 1,000×g for 15 minutes at 4° C. The supernatant was collected and stored at −80° C. until use. Plasma urea nitrogen was measured by FUJI DRI-CHEM 7000 (Fujifilm, Japan).
Measurement of Kidney Biochemistry. To quantify kidney hydroxyproline content, frozen left kidney samples were processed by an alkaline-acid hydrolysis method as follows. Kidney samples were dissolved in 2N NaOH at 65° C., and autoclaved at 121° C. for 20 minutes. The lysed samples (150 μL) were acid-hydrolyzed with 150 μL of 6N HCl at 121° C. for 20 minutes, and neutralized with 150 μL of 4N NaOH containing 10 mg/mL activated carbon. AC buffer (2.2M acetic acid/0.48M citric acid, 150 μL) was added to the samples, followed by centrifugation to collect the supernatant. A standard curve of hydroxyproline was constructed with serial dilutions of trans-4-hydroxy-L-proline (Sigma-Aldrich, USA) starting at 16 μg/mL. The prepared samples and standards (each 400 μL) were mixed with 400 μL chloramine T solution (Nacalai Tesque Inc., Japan) and incubated for 25 minutes at room temperature. The samples were then mixed with Ehrlich's solution (400 μL) and heated at 65° C. for 20 minutes for color development. After samples were cooled on ice and centrifuged to remove precipitates, the optical density of each supernatant was measured at 560 nm. The concentrations of hydroxyproline were calculated from the hydroxyproline standard curve. Protein concentrations of kidney samples were determined using a BCA protein assay kit (Thermo Fisher Scientific, USA) and used to normalize the calculated hydroxyproline values. Kidney hydroxyproline contents were expressed as μg per mg protein.
Histopathological Analyses. For PAS staining, sections were cut from paraffin blocks and stained with Schiff's reagent (Wako Pure Chemical Industries) according to the manufacturer's instructions. […]

[4] = test system: bleomycin-induced pulmonary fibrosis; test: Bleomycin-induced pulmonary fibrosis model, late treatment (Day 7 to 20); assay type: in vivo, C57BL/6J mice; conditions: mean±SD, Day 21
Text: Protocol to Examine the Effects of anti-human CLDN1 Monoclonal Antibody in Treating Fibrosis in a Bleomycin-Induced Pulmonary Fibrosis Model. Pathogen-free 6 weeks old female C57BL/6Jmice will be obtained from Japan SLC, Inc. (Japan). […] The mice were transferred to a clean cage (resting cage) and kept until recovery from anesthesia. The bleomycin administration took place on two separate days, with equal numbers of mice assigned to each day. […] Mice groups. […] Survival, biochemical and histological analysis. […] Lung hydroxyproline content was assessed according to a routine method. Statistical tests. Statistical tests were performed using Kruskal-Wallis test.

human Claudin-1 (CLDN1) [5] = target: T1, human Claudin-1 (CLDN1) (human, UniProt O95832 1-211); test: flow cytometry on RPTEC/TERT1 kidney cells, PE median fluorescence, Michaelis-Menten fit
T1 construct: whole, on cells; Tight junction membrane protein; endogenously expressed on the cell lines, primary cells and tissues used; also called CLDNA
T1 sequence (looked up): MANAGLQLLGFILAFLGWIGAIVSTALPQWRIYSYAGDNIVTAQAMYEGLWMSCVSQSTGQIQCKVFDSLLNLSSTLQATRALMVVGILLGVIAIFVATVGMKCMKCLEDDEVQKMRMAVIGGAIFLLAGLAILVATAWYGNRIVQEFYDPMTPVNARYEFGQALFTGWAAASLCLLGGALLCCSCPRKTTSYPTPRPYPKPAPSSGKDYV
Method: (§1) FIG. 4. Binding Properties of Humanized CLDN1-specific MAbs Targeting CLDN1 Expressed on Kidney RPTEC/TERT1 and Lung A549 Cell Lines. Cells were incubated with increasing concentrations of humanized H3L3 CLDN1-specific mAb, as indicated. Representative histograms show binding of humanized H3L3 CLDN1-specific mAb at the saturation point for each specific cells line: (A) RPTEC/TERT1 (50 μg/mL) and (B) A549 (20 μg/mL). Binding was measured by flow cytometry after incubation with PE-labelled anti-human and analyzed with Cytoflex and FlowJo V10. […] The graphs show binding of humanized H3L3 CLDN1-specific mAb until the saturation point for each specific cell line.
(§2) Binding Studies. Cells were de-attached using a solution of EDTA (4 mM) and re-suspended in PBS containing 1% FBS at 4° C. Then, 150,000 cells were incubated with increasing concentrations of the humanized H3L3 CLDN1-specific mAb (see WO/2017/162678) and the binding signals were read by flow cytometry after incubation with PE-labelled anti-human using a dilution of 1:100 and analyzed with Cytoflex and FlowJo V10. Two washes with PBS containing 1% FBS were performed after every antibody incubation. A binding curve for each cell line was built using the PE median fluorescence intensity (MFI) and the Kd of the interaction was calculated by applying the Michaelis-Menten mathematical model in R 3.5.1.

human Claudin-1 (CLDN1) [6] = target: T1, human Claudin-1 (CLDN1); test: flow cytometry on A549 lung cells, PE median fluorescence, Michaelis-Menten fit
Method: as §1, §2

[7] = Antibody biodistribution in mice (Alexa-fluor 750 label, ex vivo organ fluorescence); parameters: species or system Balb/c mice; conditions: 500 μg i.p.; organs harvested at 24 hours and 48 hours
Method: Reagents and Antibodies. The anti-Claudin-1 monoclonal antibody (anti-CLDN1 mAb-OM-7D3-B3) was produced as previously described (Fofana et al., Gastroenterology, 2010, 139: 953-964, e1-4). Control mAb (rat IgG2b clone LTF-25, Bio X Cell) was also used.
Antibody biodistribution. The antibodies were labeled with Alexa-fluor 750 (RD-Biotech, Besangon, France). Eight week-old Balb/c mice were injected intraperitoneally with 500 μg of Alexa-fluor 750-labeled CLDN1-specific or control mAb. Organs were harvested 24 hours and 48 hours as previously described (Krieger et al., Hepatology, 2010, 51: 1144-1157) and ex vivo organ-specific fluorescence was detected with an IVIS Lumina 50 (Xenogen-Caliper-Perkin-Elmer) and expressed as average efficiency.
Statistical Analyses. The Mann-Whitney test was used. A p-value <0.05 was considered significant. Statistical analyzes were performed with GraphPad Prism 6 software.

[8] = kidney sections versus Vehicle group

## C[C@@H]1C[C@H]2[C@@H]3CCC4=CC(=O)C=C[C@]4(C)[C@@]3(F)[C@@H](O)C[C@]2(C)[C@@]1(O)C(=O)CO [Dexamethasone]
[1]; 18 mice per group
  mice found dead before reaching Day 21: Ten out of 18
[1]; Kaplan-Meier, Log Rank Test
  survival rate compared with Vehicle group: significant decrease

## Cc1ccc(NC(=O)c2ccc(CN3CCN(C)CC3)cc2)cc1Nc1nccc(-c2cccnc2)n1 [Imatinib, Imatinib mesylate]
[2]; HE staining
  dermal thickness: significant decrease
[2]; Masson staining
  skin fibrosis area: significant decrease

## CCCc1nc2c(C)cc(-c3nc4ccccc4n3C)cc2n1Cc1ccc(-c2ccccc2C(=O)O)cc1 [Telmisartan]
[3]; fibrosis area, mean ± S.D., n = 8
  Sirius red-positive area: 2.44 ± 1.19%
[3]; [8]
  inflammatory cell infiltration, F4/80 immunostaining: lower than that in the Vehicle group
  inflammatory cell infiltration, PAS staining: lower than in the Vehicle group
[3]; left kidney, mean ± S.D., n = 8
  Kidney hydroxyproline: 6.19 ± 2.31 μg/mg total protein
[3]; mean ± S.D., n = 8
  Right kidney weight: 139 ± 9 mg
[3]; mouse, in vivo
  Body weight: 18.7 ± 1.1 g
  Plasma urea nitrogen: 33.9 ± 5.2 mg/dL
[3]; obstructed kidney, mean ± S.D., n = 8
  Left kidney weight: 630 ± 160 mg

## COC(=O)c1ccc2c(c1)NC(=O)/C2=C(\Nc1ccc(N(C)C(=O)CN2CCN(C)CC2)cc1)c1ccccc1 [Nintedanib]
[4]
  lung hydroxyproline levels: 51.3±9.0

B1: humanized H3L3 CLDN1-specific mAb (antibody, V domains shown)
VH: QVQLVESGGGVVQPGRSLRLSCLGSGFSFSSYGMNWVRQAPGKGLEWVASISPSGSYFYYADSVKGRFTISRDNSKNTLYLQMTSLRAEDTAIYYCARLPGFNPPFDHWGQGTLVTVSS
VL: DIQMTQSPSSLSASVGDRVTITCKASQNVGGNVDWYQWKPGKAPKLLIYGASNRYTGVPDRFRGSGSGTDFTLTISSLQPEDVATYYCLQYKNNPWTFGGGTKVEIK
notes: also called anti-CLDN1 mAb H3L3; humanized anti-CLDN1 mAb
Human Claudin-1 (CLDN1) [5]
  Kd: 53 nM
Human Claudin-1 (CLDN1) [6]
  Kd: 16.3 nM

B2: OM-7D3-B3: rat monoclonal antibody against human Claudin-1 secreted by hybridoma DSM ACC2938; VH SEQ ID NO: 1, VL SEQ ID NO: 2 (antibody, V domains shown)
VH: EVQLVESGGGLVQPGRSLKLSCLGSGFSFSSYGMNWIRQAPGKGLEWVASISPSGSYFYYADSVKGRFTISRENAKNTLYLQMTSLRAEDTALYYCARLPGFNPPFDHWGQGVVVTVSS
VL: NTVMTQSPTSMFMSVGDRVTMNCKASQNVGGNVDWYQWKPGQSPKLLMYGASNRYTGVPDRFRGSGSGTDFTLTISNMQTEDLAVYYCLQYKNNPWTFGGGTKVELK
modifications: variable heavy chain of OM-7D3-B3; variable light chain of OM-7D3-B3
[7]
  organ enrichment of labeled antibody versus control mAb: enrichment in the anti-CLDN1 monoclonal antibody was observed in skin, kidneys, lungs, intestines and liver

— patent US20230138047A1, “ANTI-CLAUDIN-1 MONOCLONAL ANTIBODIES FOR THE PREVENTION AND TREATMENT OF FIBROTIC DISEASES” (Université de Strasbourg, priority 2019, published 2023)
